Experimental data reported in patent US8802679B2, “Glycine compound” (Astellas Pharma Inc., priority 2009, dated 2014).
Counter-ions that a name gives are not always drawn.

Columns and labels:
[1] = tested on: VAP-1 enzyme activity in plasma; experiment: Plasma VAP-1 enzyme activity after oral administration to rats (radio-enzyme assay); format: in vivo, Wistar male rats; conditions: rat, oral 1 mg/kg; for Inhibition Ratio (%) of plasma VAP-1 activity, 1 h: 1 h after administration; for Inhibition Ratio (%) of plasma VAP-1 activity, 3 h: 3 h after administration; for Inhibition Ratio (%) of plasma VAP-1 activity, 6 h: 6 h after administration; for Inhibition Ratio (%) of plasma VAP-1 activity, 12 h: 12 h after administration
Method: Eight-week to twelve-week Wistar male rats were fasted for 20 hours, and orally administered with a test drug (1 mg/1 kg). Heparin blood collection from the tail vein was performed immediately before the administration, and at 1 h, 3 h, 6 h, and 12 h after the administration. The resulting blood was subjected to centrifugation at 14000 rpm for 5 minutes to separate plasma, and the VAP-1 enzyme activity in the resulting plasma was measured by a radio-enzyme assay method.
For the radio-enzyme assay method, ^14C-benzylamine which is a synthetic substrate (10 μM) was reacted with the resulting plasma at 37° C., and the resulting metabolite was extracted with a mixture of toluene/ethyl acetate. The radioactivity was measured and taken as a VAP-1 enzyme activity in the plasma. The effect of the test drug was calculated from the ratio (%) of the VAP-1 activity after the administration of the test drug relative to the VAP-1 activity in the plasma immediately before the administration (100%).

[2] = molecular target: human VAP-1 enzyme (SSAO) (Homo sapiens (Human), UniProt Q16853); experiment: Inhibitory effect on human VAP-1 enzyme (SSAO) activity, radiochemistry-enzymatic assay with 14C-benzylamine; format: biochemical; conditions: enzyme from CHO cells expressing human VAP-1; 14C-benzylamine 1×10^−5 mol/L
Chain of human VAP-1 enzyme (SSAO) (Q16853 whole entry): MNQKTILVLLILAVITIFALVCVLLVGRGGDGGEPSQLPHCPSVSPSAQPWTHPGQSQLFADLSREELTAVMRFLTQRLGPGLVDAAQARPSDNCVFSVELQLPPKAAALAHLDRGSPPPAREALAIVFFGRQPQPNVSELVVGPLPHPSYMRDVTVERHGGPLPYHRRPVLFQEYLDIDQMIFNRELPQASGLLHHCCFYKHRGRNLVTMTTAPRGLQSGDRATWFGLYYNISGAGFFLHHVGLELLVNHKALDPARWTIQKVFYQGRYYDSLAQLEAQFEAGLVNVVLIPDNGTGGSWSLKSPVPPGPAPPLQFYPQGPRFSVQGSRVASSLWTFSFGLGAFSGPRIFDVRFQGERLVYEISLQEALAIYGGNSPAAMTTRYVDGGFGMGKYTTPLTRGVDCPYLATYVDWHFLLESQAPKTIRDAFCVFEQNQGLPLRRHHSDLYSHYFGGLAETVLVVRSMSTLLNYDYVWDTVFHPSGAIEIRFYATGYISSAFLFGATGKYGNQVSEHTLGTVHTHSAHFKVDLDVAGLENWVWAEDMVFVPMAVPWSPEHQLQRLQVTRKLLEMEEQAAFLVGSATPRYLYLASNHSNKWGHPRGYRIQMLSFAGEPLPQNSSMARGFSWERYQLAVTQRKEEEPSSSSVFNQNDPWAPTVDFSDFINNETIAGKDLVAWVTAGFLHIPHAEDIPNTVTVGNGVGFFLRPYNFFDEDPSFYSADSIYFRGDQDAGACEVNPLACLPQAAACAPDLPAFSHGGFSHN
Method: Inhibitory Effect of Compound on Human VAP-1 Enzyme (SSAO) Activity
(§1) A human VAP-1 enzyme (SSAO) activity was measured by a radiochemistry-enzymatic assay using ^14C-benzylamine as an artificial substrate. An enzyme suspension prepared from CHO (Chinese Hamster Ovary) cells stably expressing a human VAP-1 enzyme (SSAO) was preincubated with the compound of the present invention in a 96-well microplate at room temperature for 30 minutes. Subsequently, the enzyme suspension was incubated with ^14C-benzylamine (a final concentration of 1×10^−5 mol/L) to a final volume of […] at 37° C. for 1 hour. The enzymatic reaction was stopped by the addition of 2 mol/L (50 μL) of citric acid. The oxidation products were extracted directly in a 200-μL toluene scintillator, and the radioactivity was measured with a scintillation spectrometer.
(§2) In addition, the inhibitory activity is expressed in IC50 (nmol/L).

[3] = molecular target: rat VAP-1 enzyme (SSAO) (Rattus norvegicus (Rat), UniProt O08590); experiment: Inhibitory effect on rat VAP-1 enzyme (SSAO) activity, radiochemistry-enzymatic assay with 14C-benzylamine; format: biochemical; conditions: enzyme from CHO cells expressing rat VAP-1; 14C-benzylamine 1×10^−5 mol/L
Chain of rat VAP-1 enzyme (SSAO) (O08590 whole entry): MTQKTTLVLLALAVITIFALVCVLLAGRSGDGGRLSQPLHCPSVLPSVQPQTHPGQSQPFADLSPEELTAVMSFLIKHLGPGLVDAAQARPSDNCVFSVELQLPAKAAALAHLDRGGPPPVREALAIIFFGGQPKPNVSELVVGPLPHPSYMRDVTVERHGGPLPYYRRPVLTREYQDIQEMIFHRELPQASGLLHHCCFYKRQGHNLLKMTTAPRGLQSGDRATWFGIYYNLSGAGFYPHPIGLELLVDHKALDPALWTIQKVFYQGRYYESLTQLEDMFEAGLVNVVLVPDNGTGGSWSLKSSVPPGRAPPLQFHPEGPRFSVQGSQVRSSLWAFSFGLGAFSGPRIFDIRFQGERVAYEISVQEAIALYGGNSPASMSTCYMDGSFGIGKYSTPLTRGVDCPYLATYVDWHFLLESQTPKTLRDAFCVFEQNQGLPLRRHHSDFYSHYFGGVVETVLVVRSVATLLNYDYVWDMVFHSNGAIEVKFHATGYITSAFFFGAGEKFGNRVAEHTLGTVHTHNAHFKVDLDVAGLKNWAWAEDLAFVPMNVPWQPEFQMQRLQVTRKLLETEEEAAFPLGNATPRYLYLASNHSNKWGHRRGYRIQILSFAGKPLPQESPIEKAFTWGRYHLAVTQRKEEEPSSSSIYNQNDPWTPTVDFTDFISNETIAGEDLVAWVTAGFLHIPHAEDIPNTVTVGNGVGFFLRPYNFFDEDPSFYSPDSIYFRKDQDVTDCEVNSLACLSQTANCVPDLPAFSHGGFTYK
Method: Inhibitory Effect of Compound on Rat VAP-1 Enzyme (SSAO) Activity
as §1, with “rat VAP-enzyme 1” for “human VAP-1 enzyme”
as §2

Row | Structure (SMILES) | IC50 [2] [nM] | IC50 [3] [nM] | Inhibition Ratio (%) of plasma VAP-1 activity, 1 h [1] [%] | Inhibition Ratio (%) of plasma VAP-1 activity, 3 h [1] [%] | Inhibition Ratio (%) of plasma VAP-1 activity, 6 h [1] [%] | Inhibition Ratio (%) of plasma VAP-1 activity, 12 h [1] [%]
1 | CN(Cc1cccc(-c2cnc(N3CCCC3)nc2)c1)C(=O)CN [Ex 75] | 49 | 3.6 | 78 | 58 | 38 | 24
2 | Cc1cc(CCC(=O)O)cnc1N1CCN(c2ncc(-c3cccc(CN(C)C(=O)CN)c3)cn2)CC1 [Ex 66] |  |  | 78 | 81 | 74 | 67
3 | C[C@@H]1CN(c2ccc(-c3cccc(CN(C)C(=O)CN)c3)cn2)C[C@H](C)O1 [Ex 80] | 81 | 39 | 48 | 43 | 26 | 21
4 | CN(Cc1cccc(-c2cnc(N3CCOCC3)nc2)c1)C(=O)CN [Example 69, N-methyl-N-[3-(2-morpholin-4-ylpyrimidin-5-yl)benzyl]glycinamide L-tartrate] | 32 | 9.8 | 72 | 56 | 39 | 24
5 | CN(Cc1cccc(-c2cnc(N3CCOC(CO)C3)nc2)c1)C(=O)CN (stereo not shown) [Ex 79] | 66 | 34 | 24 | 21 | 15 | 14
6 | C[C@@H]1CN(c2ncc(-c3cccc(CN(C)C(=O)CN)c3)cn2)C[C@H](C)O1 [Ex 78] |  |  | 31 | 18 | 3 | −4
7 | Cc1cc(/C=C/C(=O)O)cnc1N1CCN(c2ncc(-c3cccc(CN(C)C(=O)CN)c3)cn2)CC1 [Example 19, (2E)-3-(6-{-4-[5-(3-{[glycyl(methyl)amino]methyl}phenyl)pyrimidin-2-yl]piperazin-1-yl}-5-methylpyridin-3-yl)acrylic acid dihydrochloride] | 6.9 | 6.9 | 84 | 79 | 75 | 63

Further lines, with some results ahead:

Row | IC50 [2] [nM] | IC50 [3] [nM] | Structure (SMILES) | Inhibition Ratio (%) of plasma VAP-1 activity, 1 h [1] [%] | Inhibition Ratio (%) of plasma VAP-1 activity, 3 h [1] [%] | Inhibition Ratio (%) of plasma VAP-1 activity, 6 h [1] [%] | Inhibition Ratio (%) of plasma VAP-1 activity, 12 h [1] [%]
8 | 140 | 15 | CN(Cc1cccc(-c2cnc(N3CCC(O)CC3)nc2)c1)C(=O)CN [Ex 84] | 16 | 20 | 17 | 
9 | 11 | 5.8 | CN(Cc1cccc(-c2cnc(N3Cc4cccnc4C3)nc2)c1)C(=O)CN [Ex 95] | 70 | 67 | 71 | 21
10 | 49 | 7.4 | CN(Cc1cccc(-c2cnc(N3CC[C@H](F)C3)nc2)c1)C(=O)CN [Example 16] | 83 | 83 | 53 | 42
11 | 31 | 21 | CN(Cc1cccc(-c2cnc(N3CCN(c4ncc(/C=C/C(=O)O)cc4Cl)CC3)nc2)c1)C(=O)CN [Example 33] | 84 | 87 | 97 | 83
12 | 7 | 14 | CN(Cc1cccc(-c2cnc(N3CC=C(c4cccnc4)CC3)nc2)c1)C(=O)CN [Ex 191] | 35 | 43 | 48 | 20
13 | 18 | 10 | CN(Cc1cccc(-c2cnc(N3CCN(c4ncc(C(=O)O)cc4Cl)CC3)nc2)c1)C(=O)CN [Example 32] | 68 | 70 | 58 | 45
14 | 48 | 21 | CN(Cc1cccc(-c2cnc(N3CCC(N4CCOCC4)CC3)nc2)c1)C(=O)CN [Example 51] | 30 | 37 | 43 | 32
15 | 25 | 15 | CN(Cc1cccc(-c2cnc(N3CCN(c4ccc(C(=O)O)cc4Cl)CC3)nc2)c1)C(=O)CN [Example 263, 3-chloro-4-{4-[5-(3-{[glycyl(methyl)amino)methyl}phenyl)pyrimidin-2-yl]piperazin-1-yl}benzoic acid dihydrochloride] | 97 | 95 | 80 | 75
16 | 32 | 22 | Cc1cccnc1N1CCN(c2ncc(-c3cccc(CN(C)C(=O)CN)c3)cn2)CC1 [Example 3, N-methyl-N-(3-{2-[4-(3-methylpyridin-2-yl)piperazin-1-yl]pyrimidin-5-yl}benzyl)glycinamide L-tartrate] | 65 | 77 | 71 | 47
17 | 18 | 12 | Cc1ncccc1N1CCN(c2ncc(-c3cccc(CN(C)C(=O)CN)c3)cn2)CC1 [Ex 91] | 68 | 68 | 68 | 44
